# Test results published in BindingDB's records for patent US20250188037 (Takeda Pharmaceutical, 2025).
# Legend:
# [1] = target: Somatostatin receptor type 1 (Homo sapiens, UniProt P30872); assay: SSTR1 I-125 Somatostatin Competition Binding Assay for Selectivity Versus SSTR1
# Experimental: Then 10 μg of SSTR1 membranes in 50 μL assay buffer are added per well. The plate is incubated for 60 minutes at room temperature. […] The contents of the assay plate are transferred to filters with a TomTech harvester and washed 5 times with 20 mM HEPES, 100 mM NaCl. […] The scintillator sheets are melted to the filters using a heat block. The filters are then read in a MicroBeta scintillation counter. Binding Ki curves are generated using Activity Base for Screening Data Management and the results are reported as pIC50.
# [2] = target: Somatostatin receptor type 4 (Homo sapiens, UniProt P31391); assay: SSTR4 I-125 Somatostatin Competition Binding Assay for Selectivity Versus SSTR4
# Somatostatin receptor type 4, sequence (P31391 whole entry): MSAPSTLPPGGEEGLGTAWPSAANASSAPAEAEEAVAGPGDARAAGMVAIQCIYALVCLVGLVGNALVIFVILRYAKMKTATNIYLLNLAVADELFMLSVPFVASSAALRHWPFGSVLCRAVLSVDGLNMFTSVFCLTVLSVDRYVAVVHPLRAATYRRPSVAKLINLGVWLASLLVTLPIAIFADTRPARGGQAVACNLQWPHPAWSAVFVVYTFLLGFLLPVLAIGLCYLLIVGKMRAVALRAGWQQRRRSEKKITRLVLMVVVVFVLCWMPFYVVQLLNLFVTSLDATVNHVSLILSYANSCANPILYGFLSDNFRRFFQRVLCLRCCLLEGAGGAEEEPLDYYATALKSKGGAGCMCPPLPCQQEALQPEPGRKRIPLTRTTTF
# Experimental: Then 1 μg of SSTR4 membranes in 50 μL assay buffer are added per well. The Plate is incubated for 60 minutes at room temperature. […] The contents of the assay plate are transferred to filters with a TomTech harvester and washed 5 times with 20 mM HEPES, 100 mM NaCl. […] The scintillator sheets are melted to filters using a heat block. The filters are then read in a MicroBeta scintillation counter. Binding Ki curves are generated using Activity Base for Screening Data Management and the results are reported as pIC50.
# Somatostatin receptor type 1, sequence (P30872 whole entry): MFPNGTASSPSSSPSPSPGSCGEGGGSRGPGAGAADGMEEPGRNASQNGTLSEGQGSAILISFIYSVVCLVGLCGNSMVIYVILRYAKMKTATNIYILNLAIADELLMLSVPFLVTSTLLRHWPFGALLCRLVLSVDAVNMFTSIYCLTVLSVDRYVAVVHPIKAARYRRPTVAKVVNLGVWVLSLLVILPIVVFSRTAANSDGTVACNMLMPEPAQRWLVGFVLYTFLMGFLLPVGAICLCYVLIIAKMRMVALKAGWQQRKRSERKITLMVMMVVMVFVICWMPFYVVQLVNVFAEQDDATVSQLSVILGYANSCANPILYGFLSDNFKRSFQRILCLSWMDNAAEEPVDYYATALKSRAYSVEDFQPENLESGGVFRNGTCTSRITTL
compound,measurement,setting,value
"O=C(N[C@H]1CCNC[C@@H]1F)C1(Cc2cccc(F)c2)CC1 [US20250188037, Example 44]",IC50,[1],> 50100 nM
same,IC50,[2],87.1 nM
